In patent publication EP0048954A2, “Beta-lactam compounds, process for the preparation thereof and intermediate products for the preparation thereof” (SAGAMI CHEMICAL RESEARCH CENTER, priority 1980, dated 1982):
≈ marks a conversion by molar mass, not a printed value. Where “and” joins values, the source holds several entries; their conditions need not be identical. Equal values may be shown once. Where a name gives a salt, the structure may show the parent alone. Read-outs that look alike come from different tables or passages of the source.

Experiments:
Test in all cases: Antibacterial activity, minimum inhibition concentration (method of The Chemotherapy Association, Japan)
Format in all cases: cell-based
Proteus vulgaris OX-19 = conditions: for MIC: Proteus vulgaris, OX19, strain H: Proteus vulgaris OX-19, read-out: minimum inhibition concentration
Description: (§1) The abbreviations A to P will be used in the following Tables 2 to 8.
(§2) Test results are shown in terms of the minimum inhibition concentration (µg/mℓ.) in the following Tables 2 to 8.

Proteus rettgeri NIH-96 = conditions: for MIC: Providencia rettgeri, NIH96, strain I: Proteus rettgeri NIH-96, read-out: minimum inhibition concentration
Description: as §1, §2

[1] = system: Salmonella typhimurium 3173; conditions: for MIC: Salmonella enterica, TYPHIMURIUM
Description: (§3) Antibacterial activities of the compounds according to this invention, which had been prepared in the preceding Examples, were measured according to the method prescribed by The Committee of Amendment of "The method for measurement of the minimum inhibition concentration", The Chemotherapy Association, Japan (See Chemotherapy, Vol. 22, No. 6, pp. 1126 - 1128 (1974) and Vol. 29, No. 1, pp. 76 - 79 (1981)).
as §1, §2

[2] = system: Bacillus subtilis ATCC 6633; conditions: for MIC: Bacillus subtilis, ATCC6633, strain B: Bacillus subtilis ATCC 6633, read-out: minimum inhibition concentration
Description: as §3, §1, §2

Klebsiella pneumoniae = conditions: strain C: Klebsiella pneumoniae; for MIC: Klebsiella pneumoniae, read-out: minimum inhibition concentration
Description: as §3, §1, §2

Escherichia coli NIHJ = conditions: for MIC: Escherichia coli, read-out: minimum inhibition concentration
Description: as §3, §1, §2

[3] = system: Staphylococcus aureus 6538-P; conditions: strain A: Staphylococcus aureus 6538-P; for MIC: read-out: minimum inhibition concentration
Description: as §3, §1, §2

[4] = system: Serratia marcescens IFO-3736; conditions: Serratia marcescens
Description: as §3, §1, §2

Proteus morgani Kono = conditions: read-out: minimum inhibition concentration
Description: as §3, §1, §2

[5] = system: Enterobactor cloacae NCTC-9394; conditions: strain N: Enterobactor cloacae NCTC-9394; for MIC: read-out: minimum inhibition concentration
Description: as §3, §1, §2

[6] = system: Proteus mirabillis B-30-2 IFO-3849
Description: as §3, §1, §2

[7] = system: Pseudomonas aeruginosa NCTC-10490; conditions: Pseudomonas aeruginosa
Description: as §3, §1, §2

[8] = system: Citrobactor freundii NIH-10018 -68; conditions: strain O: Citrobactor freundii NIH-10018 -68; read-out: minimum inhibition concentration
Description: as §3, §1, §2

Escherichia coli NIHJC-2 = conditions: for MIC: Escherichia coli
Description: as §3, §1, §2

[9] = strain D: Salmonella typhimurium 3173, read-out: minimum inhibition concentration
[10] = IFO3736, strain F: Serratia marcescens IFO-3736, read-out: minimum inhibition concentration
[11] = strain G: Proteus mirabillis B-30-2 IFO-3849, read-out: minimum inhibition concentration
[12] = strain K: Escherichia coli NIHJ
[13] = NCTC10490, strain M: Pseudomonas aeruginosa NCTC-10490, read-out: minimum inhibition concentration
[14] = NIHJC2, strain L: Escherichia coli NIHJC-2, read-out: minimum inhibition concentration

MIC (Proteus vulgaris OX-19) | MIC (Proteus rettgeri NIH-96) | MIC [1, 9] | MIC [4, 10] | MIC [2] | MIC (Klebsiella pneumoniae) | MIC (Proteus morgani Kono; strain J: Proteus morgani Kono) | MIC [6, 11] | MIC [8] | SMILES | MIC [5] | MIC (Escherichia coli NIHJ; [12]) | MIC [7, 13] | MIC (Escherichia coli NIHJC-2; [14]) | MIC [3] | other results
 |  |  |  |  |  |  |  |  | Cn1nnnc1SCC1=C(C(=O)O)N2C(=O)C(NC(=O)C(=C(Cl)Cl)c3csc(N)n3)C2SC1 (stereo not drawn) [6-(3), 7-[2-dichloromethylene-(2-aminothiazol-4-yl)-acetamido]-3-(l-methyl-lH-tetrazol-5-yl)thiomethyl-3-cephem-4-carboxylic acid sodium salt] |  |  |  |  |  | minimum inhibition concentration (Proteus vulgaris OX-19; strain H: Proteus vulgaris OX-19): 0.1 µg/mL; minimum inhibition concentration (Proteus rettgeri NIH-96; strain I: Proteus rettgeri NIH-96): <0.025 µg/mL; minimum inhibition concentration ([1]; strain D: Salmonella typhimurium 3173, sodium salt): 3.125 µg/mL; minimum inhibition concentration ([2]; strain B: Bacillus subtilis ATCC 6633, sodium salt): 25 µg/mL; minimum inhibition concentration (Klebsiella pneumoniae; sodium salt): 6.25 µg/mL; minimum inhibition concentration (Escherichia coli NIHJ; strain K: Escherichia coli NIHJ, sodium salt): 0.05 µg/mL; minimum inhibition concentration [3]: 0.78 µg/mL
0.2 µg/mL | < 0.025 µg/mL | 12.5 µg/mL | 50 µg/mL | 3.12 µg/mL | 12.5 µg/mL | 12.5 µg/mL | 25 µg/mL | 12.5 µg/mL | CSc1nnc(SCC2=C(C(=O)O)N3C(=O)C(NC(=O)C(=C(Cl)Cl)c4csc(N)n4)C3SC2)s1 (centres unmarked) [9-(2), 7-[2-dichloromethylene-2-(aminothiazol-4-yl)-acetamido]-3-(2-methylthio-l,3,4-thiadiazol-5-yl) thiomethyl-3-cephem-4-carboxylic acid sodium salt] | 3.12 µg/mL | < 0.025 µg/mL | 12.5 µg/mL | 25 µg/mL | 0.78 µg/mL | 
0.78 µg/mL (≈ 1.29 µM) | 0.05 µg/mL (≈ 0.0824 µM) | 12.5 µg/mL (≈ 20.6 µM) | 50 µg/mL (≈ 82.4 µM) | 12.5 µg/mL (≈ 20.6 µM) | 12.5 µg/mL (≈ 20.6 µM) | 12.5 µg/mL (≈ 20.6 µM) | 25 µg/mL (≈ 41.2 µM) | 12.5 µg/mL (≈ 20.6 µM) | CN(C)CCn1nnnc1SCC1=C(C(=O)O)N2C(=O)C(NC(=O)C(=C(Cl)Cl)c3csc(N)n3)C2SC1 (stereo not drawn) [10-(1), 7-[2-dichloromethylene-2-(2-aminothiazol-4-yl)-acetamido]-3-[l-(2-dimethylaminoethyl)-lH-tetrazol-5-yl]thiomethyl-3-cephem-4-carboxylic acid] | 3.12 µg/mL (≈ 5.15 µM) | 0.1 µg/mL (≈ 0.165 µM) | 25 µg/mL (≈ 41.2 µM) | 12.5 µg/mL (≈ 20.6 µM) | 3.12 µg/mL (≈ 5.15 µM) | 
 |  |  |  |  |  |  |  |  | CC(=O)OCC1=C(C(=O)O)N2C(=O)[C@@H](NC(=O)Cc3cccs3)[C@H]2SC1 [Cephalo-thin, reference compound] | 50 µg/mL (≈ 126 µM) |  |  | 25 µg/mL (≈ 63.1 µM) |  | MIC ([1]; read-out: minimum inhibition concentration, strain D: Salmonella typhimurium 3173): 3.17 µg/mL (≈ 8.01 µM); minimum inhibition concentration ([1]; strain D: Salmonella typhimurium 3173): 6.25 µg/mL (≈ 15.8 µM); MIC ([4]; IFO3736, read-out: minimum inhibition concentration): > 100 µg/mL; MIC (Proteus morgani Kono): > 100 µg/mL; minimum inhibition concentration [5]: >100 µg/mL; MIC ([6]; read-out: minimum inhibition concentration, strain G: Proteus mirabillis B-30-2 IFO-3849): 12.5 µg/mL (≈ 31.5 µM); minimum inhibition concentration ([6]; strain G: Proteus mirabillis B-30-2 IFO-3849): 25 µg/mL and 12.5 µg/mL; MIC (Escherichia coli NIHJ): 12.5 µg/mL (≈ 31.5 µM); MIC ([7]; NCTC10490, read-out: minimum inhibition concentration): > 100 µg/mL; MIC (Escherichia coli NIHJC-2; NIHJC2, read-out: minimum inhibition concentration): 12.5 µg/mL (≈ 31.5 µM); minimum inhibition concentration (Escherichia coli NIHJC-2; strain L: Escherichia coli NIHJC-2): 50 µg/mL (≈ 126 µM)
 |  |  |  |  |  |  |  |  | CC(=O)OCC1=C(C(=O)O)N2C(=O)C(NC(=O)C(=C(Cl)Cl)c3ccccc3)[C@H]2SC1 (some centres unmarked) [Compound 38, 7-(2-dichloromethylene-2-phenylacetamido)-3-acetoxymethyl-3-cephem-4-carboxylic acid] |  | 3.1 µg/mL (≈ 6.58 µM) | > 100 µg/mL |  | 1.56 µg/mL (≈ 3.31 µM) | 

SMILES | MIC (Proteus vulgaris OX-19) | MIC (Proteus rettgeri NIH-96) | MIC [1, 9] | MIC [4, 10] | MIC [2] | MIC (Klebsiella pneumoniae) | MIC (Proteus morgani Kono; strain J: Proteus morgani Kono) | MIC [6, 11] | MIC [8] | MIC [5] | MIC (Escherichia coli NIHJ; [12]) | MIC [7, 13] | MIC (Escherichia coli NIHJC-2; [14]) | MIC [3] | other results
CC1=C(C(=O)O)N2C(=O)C(NC(=O)C(=C(Cl)Cl)c3csc(N)n3)C2SC1 (centres unmarked) [8-(3), 7-[2-dichloromethylene-2-(2-aminothiazol-4-yl)-acetamido]-desacetoxycephalosporanic acid sodium salt] | 12.5 µg/mL | 0.2 µg/mL | > 100 µg/mL | > 100 µg/mL | 100 µg/mL | > 100 µg/mL | > 100 µg/mL | 100 µg/mL | > 100 µg/mL | 100 µg/mL | 6.25 µg/mL | > 100 µg/mL | 100 µg/mL | 25 µg/mL | 
